Test results: the Kinase Knowledgebase extract (Sharma et al. 2016)

Target: ROCK2 (human) (UniProt O75116)
Assay: Inhibition of ROCK2 Kinase Activity

Sequence of ROCK2 (human) (O75116 whole entry, looked up): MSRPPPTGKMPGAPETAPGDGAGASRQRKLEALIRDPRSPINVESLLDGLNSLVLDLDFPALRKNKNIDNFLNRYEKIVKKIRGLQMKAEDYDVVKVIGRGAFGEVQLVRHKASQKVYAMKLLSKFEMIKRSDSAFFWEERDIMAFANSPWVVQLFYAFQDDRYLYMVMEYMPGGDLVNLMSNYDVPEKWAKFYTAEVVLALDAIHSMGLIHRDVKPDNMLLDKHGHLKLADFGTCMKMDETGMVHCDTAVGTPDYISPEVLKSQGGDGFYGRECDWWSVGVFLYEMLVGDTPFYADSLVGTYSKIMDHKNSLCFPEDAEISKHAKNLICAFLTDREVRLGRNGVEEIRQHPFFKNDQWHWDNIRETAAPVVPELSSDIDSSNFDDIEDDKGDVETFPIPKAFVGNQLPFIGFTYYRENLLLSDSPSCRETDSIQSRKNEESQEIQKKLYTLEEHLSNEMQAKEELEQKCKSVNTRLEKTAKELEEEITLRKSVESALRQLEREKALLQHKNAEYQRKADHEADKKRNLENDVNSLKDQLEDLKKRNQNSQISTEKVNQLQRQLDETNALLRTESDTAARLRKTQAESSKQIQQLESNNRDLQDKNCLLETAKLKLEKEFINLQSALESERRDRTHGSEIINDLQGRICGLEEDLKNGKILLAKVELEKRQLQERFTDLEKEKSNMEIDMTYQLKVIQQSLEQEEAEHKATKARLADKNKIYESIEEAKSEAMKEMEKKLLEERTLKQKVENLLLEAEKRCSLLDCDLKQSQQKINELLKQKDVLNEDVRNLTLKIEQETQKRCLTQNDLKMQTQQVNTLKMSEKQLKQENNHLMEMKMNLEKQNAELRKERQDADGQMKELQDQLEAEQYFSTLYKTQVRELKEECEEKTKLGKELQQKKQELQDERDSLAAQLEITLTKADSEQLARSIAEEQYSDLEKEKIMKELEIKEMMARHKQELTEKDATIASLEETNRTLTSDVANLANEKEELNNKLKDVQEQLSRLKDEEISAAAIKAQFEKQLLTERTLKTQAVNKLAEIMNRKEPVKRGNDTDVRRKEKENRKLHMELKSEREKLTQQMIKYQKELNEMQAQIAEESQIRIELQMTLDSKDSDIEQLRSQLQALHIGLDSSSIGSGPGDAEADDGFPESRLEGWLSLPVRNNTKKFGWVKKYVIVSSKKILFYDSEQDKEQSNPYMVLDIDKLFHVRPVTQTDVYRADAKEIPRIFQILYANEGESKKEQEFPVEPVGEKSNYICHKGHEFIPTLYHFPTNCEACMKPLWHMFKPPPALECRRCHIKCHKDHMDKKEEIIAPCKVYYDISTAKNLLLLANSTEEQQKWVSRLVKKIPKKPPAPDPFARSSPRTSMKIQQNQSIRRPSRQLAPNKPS

IC50 | SMILES
50 to 500 nM | CC(=O)NCCNC(=O)CC(N)c1ccc(C(=O)Nc2ccncc2)cc1 (stereo unspecified)
50 to 500 nM | NC(CC(=O)NCc1cc(Cl)cc(Cl)c1)c1ccc(C(=O)Nc2ccncc2)cc1 (stereo unspecified)
50 to 500 nM | NC(CNC(=O)C1(c2ccc(F)c(F)c2)CCCC1)c1ccc(C(=O)Nc2ccncc2)cc1 (stereo unspecified)
500 to 5000 nM | CCCCC(=O)NCC(N)c1ccc(C(=O)Nc2ccncc2)cc1 (stereo unspecified)
50 to 500 nM | CC(Cc1c[nH]c2ccccc12)NC(=O)CC(N)c1ccc(C(=O)Nc2ccncc2)cc1 (stereo unspecified)
500 to 5000 nM | CN(CC(N)c1ccc(C(=O)Nc2ccncc2)cc1)C(=O)C1(c2ccc(Cl)c(Cl)c2)CCC1 (stereo unspecified)
50 to 500 nM | NC(CNC(=O)c1ccoc1)c1ccc(C(=O)Nc2ccncc2)cc1 (stereo unspecified)
500 to 5000 nM | NC(CNC(=O)c1ccc2ncccc2c1)c1ccc(C(=O)Nc2ccncc2)cc1 (stereo unspecified)
50 to 500 nM | N[C@@H](CC(=O)NCc1ccc(F)cc1)c1ccc(C(=O)Nc2ccncc2)cc1
500 to 5000 nM | CN(CC(N)c1ccc(C(=O)Nc2ccncc2)cc1)C(=O)C1CCCc2sccc21 (stereo unspecified)
500 to 5000 nM | CN(CC(N)c1ccc(C(=O)Nc2ccncc2)cc1)C(=O)C1(c2ccc(Cl)cc2Cl)CC1 (stereo unspecified)
500 to 5000 nM | Cc1ccc(C)c(CC(=O)NCC(N)c2ccc(C(=O)Nc3ccncc3)cc2)c1 (stereo unspecified)
500 to 5000 nM | Cc1ccc(C(=O)NCC(N)c2ccc(C(=O)Nc3ccncc3)cc2)cc1 (stereo unspecified)
50 to 500 nM | NC(CC(=O)NCCc1ccc(Cl)c(Cl)c1)c1ccc(C(=O)Nc2ccncc2)cc1 (stereo unspecified)
500 to 5000 nM | NC(CNC(=O)c1ccc(C(=O)c2ccccc2)cc1)c1ccc(C(=O)Nc2ccncc2)cc1 (stereo unspecified)
500 to 5000 nM | NC(c1ccc(C(=O)Nc2ccncc2)cc1)C1CCCN1C(=O)C1(c2ccc(F)cc2)CCC1 (stereo unspecified)
500 to 5000 nM | CN(CC(N)c1ccc(C(=O)Nc2ccncc2)cc1)C(=O)Cc1cccc(F)c1F (stereo unspecified)
500 to 5000 nM | N#Cc1ccc(C(=O)NCC(N)c2ccc(C(=O)Nc3ccncc3)cc2)cc1 (stereo unspecified)
500 to 5000 nM | NC(CNC(=O)c1ccc(Cl)cc1)c1ccc(C(=O)Nc2ccncc2)cc1 (stereo unspecified)
500 to 5000 nM | NC(c1ccc(C(=O)Nc2ccncc2)cc1)C1CCCN1C(=O)C1(c2ccc(F)cc2F)CC1 (stereo unspecified)
500 to 5000 nM | NC(CNC(=O)Cc1csc(Nc2ccccc2)n1)c1ccc(C(=O)Nc2ccncc2)cc1 (stereo unspecified)

IC50 | SMILES
500 to 5000 nM | Cc1ccc(CC(=O)N(C)CC(N)c2ccc(C(=O)Nc3ccncc3)cc2)cc1 (stereo unspecified)
500 to 5000 nM | COc1ccc(CC(=O)N2CCCC2C(N)c2ccc(C(=O)Nc3ccncc3)cc2)cc1F (stereo unspecified)
50 to 500 nM | NC(CNC(=S)Nc1ccccc1)c1ccc(C(=O)Nc2ccncc2)cc1 (stereo unspecified)
50 to 500 nM | NC(CNC(=O)CNC(=O)c1ccco1)c1ccc(C(=O)Nc2ccncc2)cc1 (stereo unspecified)
500 to 5000 nM | NC(c1ccc(C(=O)Nc2ccncc2)cc1)C1CCCN1C(=O)C1(c2ccc(F)cc2Cl)CC1 (stereo unspecified)
500 to 5000 nM | CC1=C(C(=O)NCC(N)c2ccc(C(=O)Nc3ccncc3)cc2)Cc2ccccc21 (stereo unspecified)
500 to 5000 nM | CN(CC(N)c1ccc(C(=O)Nc2ccncc2)cc1)C(=O)Cc1cccc(Cl)c1 (stereo unspecified)
50 to 500 nM | NC(CC(=O)NCc1ccccc1Cl)c1ccc(C(=O)Nc2ccncc2)cc1 (stereo unspecified)
50 to 500 nM | COc1ccc(CC(=O)N(C)CC(N)c2ccc(C(=O)Nc3ccncc3)cc2)cc1 (stereo unspecified)
500 to 5000 nM | CC(C)(C(=O)N1CCCC1C(N)c1ccc(C(=O)Nc2ccncc2)cc1)c1ccc(F)c(Cl)c1 (stereo unspecified)
50 to 500 nM | NC(CNC(=O)Cc1ccc2c(c1)OCO2)c1ccc(C(=O)Nc2ccncc2)cc1 (stereo unspecified)
50 to 500 nM | CN(CCc1ccccc1)C(=O)CC(N)c1ccc(C(=O)Nc2ccncc2)cc1 (stereo unspecified)
500 to 5000 nM | CN(CC(N)c1ccc(C(=O)Nc2ccncc2)cc1)C(=O)Cc1ccc(F)c(F)c1 (stereo unspecified)
500 to 5000 nM | CCNC(=S)NCC(N)c1ccc(C(=O)Nc2ccncc2)cc1 (stereo unspecified)
500 to 5000 nM | NC(CNC(=O)c1cccc(Br)c1)c1ccc(C(=O)Nc2ccncc2)cc1 (stereo unspecified)
50 to 500 nM | COc1ccc(CCNC(=O)CC(N)c2ccc(C(=O)Nc3ccncc3)cc2)cc1 (stereo unspecified)
50 to 500 nM | NC(CC(=O)NCCN1CCOCC1)c1ccc(C(=O)Nc2ccncc2)cc1 (stereo unspecified)
50 to 500 nM | NC(CC(=O)NCCc1cccs1)c1ccc(C(=O)Nc2ccncc2)cc1 (stereo unspecified)
500 to 5000 nM | NC(CNC(=O)Cc1c(F)cccc1F)c1ccc(C(=O)Nc2ccncc2)cc1 (stereo unspecified)
500 to 5000 nM | CN(CC(N)c1ccc(C(=O)Nc2ccncc2)cc1)C(=O)Cc1cccc(Cl)c1F (stereo unspecified)
